Results taken from publication PMC3349818 (Journal of Medicinal Chemistry, 2012).

Tests used:
[1] = In vitro liver microsome assay, mouse; assay type: in vitro ADME; conditions: predicted from mouse liver microsome stability
[2] = Pharmacokinetic study in female CD1 mice, single oral dose; conditions: CD1, mouse, in vivo, 200 mg/kg

predicted in vivo mouse CL′inf [1] [mL/min/kg]	AUC [2] [µM·h]	Compound
9.4	> 125	CCOC(=O)c1c(-c2cccc(Cl)c2)[nH]c2cc(OC)c(F)cc2c1=O [20g, Ethyl 2-(3-chlorophenyl)-6-fluoro-7-methoxy-4-oxo-1,4-dihydroquinoline-3-carboxylate]
–	> 70	CCOC(=O)c1c(-c2cccc(Br)c2)[nH]c2cc(OC)c(F)cc2c1=O [20h]
